Entries after “also recorded” stand apart in the source; their conditions may differ.
Key:
Type in all cases: cell-based, human
[1] = test system: HL-60 cells; test: Western blot of total lysates for sLeX (CSLEX1) epitopes; conditions: HL-60 total lysates; 50 μM, 72 h
Experimental: Effect of ManNAc analogues on expression of CD15s epitopes: HL-60 cells (3.0×10^5 cells/mL in 10 mL complete medium in 10 cm diameter petri dishes) were incubated with D, 1a, 1b, 1d, 1e, 1f, or 1g (50 mM), along with untreated (U) controls. After 72 h, cells were harvested, washed with PBS (3×5.0 mL), and lysed in RIPA buffer (10^7 cells in […]), containing protease inhibitor cocktail (PIC, 1:100). Protein concentration of the soluble fraction was estimated using the Bradford assay. Proteins from total lysates were resolved by 7.5% SDS-PAGE and blotted onto nitrocellulose membrane (constant current of 250 mA for 3.0 h at 4° C.). Membranes were blocked using non-fat milk (NFM) (5.0% w/v) in PBS and incubated with primary antibodies (5.0 mL PBS containing 5.0% NFM) overnight at 4° C. Membranes were washed with 0.1% PBS-T (0.1% v/v tween-20 in PBS; 3×5.0 mL, five min each at room temperature) followed by incubation with appropriate fluorophore or horse radish peroxidase (HRP) conjugated secondary antibodies for 1.0 h at room temperature. Membranes were washed with 0.1% PBS-T (3×5.0 mL, five min each) and then either directly scanned using Amersham Typhoon fluorescence scanner or developed on photographic films after treatment with enhanced chemiluminescence reagents. At least two independent replicate experiments were performed for all the blots.
The primary and secondary antibodies employed, along with dilution and stock concentration, are given below: Primary antibodies: Anti-CD15s (CSLEX1; IgM, dilution 1:5000; stock concentration 0.5 mg/mL) Anti-CLA (HECA452; IgM, dilution 1:1000, stock concentration 0.5 mg/mL) […] (AC15, IgG, dilution 1:20000, stock concentration 2.2 mg/mL); and Secondary Antibodies: AlexaFluor488-conjugated anti-mouse IgM (1:10000, stock concentration 2.0 mg/mL) AlexaFluor488-conjugated anti-rat IgM (1:10000, stock concentration 0.5 mg/mL) HRP-conjugated anti-mouse IgG (1:10000, stock concentration 0.8 mg/mL) Cy5-conjugated donkey anti-mouse IgG (1:10000, stock concentration 1.4 mg/mL) AlexaFluorplus488-conjugated anti-mouse IgG (1:10000, stock conc. 2.0 mg/mL).

[2] = test system: Jurkat cells; test: NeuAz expression on the cell surface by SPAAC with DBCO-Cy5 and flow cytometry, competition with Ac4ManNAz (1c); conditions: for NeuAz expression / DBCO-Cy5 signal, compound alone: 50 μM alone; for extent of suppression of NeuAz expression by 1c: 50 μM co-incubated with 1c, study parallel to GalNAz; for NeuAz expression, % of controls: 50 μM with 1c 50 μM, simultaneous addition; for reduction of NeuAz, simultaneous addition: analogue 10 μM and 1c 50 μM added simultaneously
Experimental: FIG. 5 illustrates competitive processing by compounds of the present invention (ManNAc compounds). ManNAc compounds competitively reduce the expression of N-azidoacetyl-D-neuraminic acid (NeuAz)-carrying sialoglycans through the metabolic processing of Ac4ManNAz. Jurkat (human T-lymphoma) cells were incubated with Ac4ManNAz (Z) (50 μM) alone, co-incubated with GL-2, GL-3, MA-2, or MA-3 (at various concentrations such as 10,
25, and 50 μM) for 24 h. Expression of N-azidoacetyl-D-neuraminic acid (NeuAz) on the cell surface sialoglycans was estimated using strain-promoted azide-alkyne cycloaddition (SPAAC) with DBCO-Cy5 and analyzed by flow cytometry. […] GL-2 was used for comparative study and the structure of this compound is as below.
Jurkat cells (3.0×10^5 cells/mL; 2.5 mL per well in 6-well plates) in complete medium were treated with either vehicle (D) or Compound 1c; Untreated Jurkat cells, without addition of vehicle, were also included as additional controls. Cells were harvested at 48 h, washed thrice with PBS (3×0.5 mL) (3000×g, 2.0 min). Prior to the last wash cells were counted and were aliquoted to 1.0×10^6 cells per sample in 1.5 mL microcentrifuge tubes and centrifuged. The cells were gently resuspended in PBS ([…]) and treated with DBCO-Cy5 ([…]) and incubated at 37° C. (on a Torrey-Pines dry heating bath with mild shaking). After one hour, the cells were washed using FSB (0.5 mL, 3000×g, 2.0 min, room temperature), resuspended in PBS (250 mL), treated with PI (2.5 mg/mL), and analyzed using BD FACSCanto and FACSDiva Version 6.1.3. The cells were gated for PI-negative population for 10,000 events. Two replicate samples were prepared for each conditions and each sample was counted twice.
Estimation of NeuAz expression by 1c in the presence of peracetylated ManNAc analogues: Jurkat cells (3.0×10^5 cells/mL in 3.0 mL per well in 6-well plates) were incubated with (i) D, (ii) 1a, 1b, 1c, or 1d alone (50 mM) or (iii) 1a, 1b, or 1d (50 mM) in combination with 1c (50 mM). After 24 h, cells were harvested, washed using FSB, aliquoted to 5.0×10^5 cells per sample, and processed as mentioned above for estimation of NeuAz expression using DBCO-Cy5 ([…]). Experiments using HL-60 cells were performed using the same procedure. […]
Effect of GlcNAc and ManNAc analogues on NeuAz expression: Jurkat cells were treated with 1a, 1b, 2a, or 2b (10, 25, and 50 mM for each analogue) in combination with 1c (50 mM). Cells treated with 1c (50 mM) alone were considered as a reference. After 24 h, cells were harvested, processed, labelled with DBCO-Cy5 ([…]), and analysed by flow cytometry as mentioned above.
In order to evaluate the metabolism, Jurkat (human T-lymphoma) cells were selected and incubated with ManNAc analogues either alone (50 μM) or in combination with 1c (50 μM) for 48 h. Expression of NeuAz on cell surface was estimated by flow cytometry through the copper-free bio-orthogonal strain-promoted azide-alkyne cycloaddition (SPAAC) reaction using dibenzocyclooctyne-Cy5 (DBCO-Cy5). The conditions for click reaction were optimized for various concentrations of DBCO-Cy5 and time course of SPAAC reaction in Jurkat cells. Based on the optimization results, incubation time of 30 min at 37° C. for 5.0×10^5 cells (pre-incubated with 1c for 48 h) with 20 μM of DBCO-Cy5 in 100 μL total volume for experiments with ManNAc analogues was chosen. […] In order to test the dose-dependency of this inhibitory effect on NeuAz expression and to establish competitive metabolic processing, Jurkat cells were first treated with either 1a or 1b (0-50 μM) followed by addition of 1c (50 μM) at 12 h and estimation of NeuAz at 48 h. As expected, the suppression of NeuAz expression was substantially higher when added with a 12 h delay compared to simultaneous addition, in a dose-dependent manner. […] By contrast simultaneous addition resulted only in a 10% reduction of NeuAz for both 1a and 1b (FIG. 6C and FIG. 7B).

[3] = test system: Jurkat cells; test: as above; conditions: analogue 10 μM first, 1c 50 μM added at 12 h, estimation at 48 h
[4] = 50 μM co-incubated with 1c 50 μM, 48 h

| SMILES | sLeX (CSLEX1) bands between 150-100 kDa in western blot [1] | NeuAz expression / DBCO-Cy5 signal, compound alone ([2]; 48 h) | NeuAz expression (1c alone taken as 100%) [2, 4] [%] | extent of suppression of NeuAz expression by 1c [2] [%] | NeuAz expression, % of controls ([2]; 24 h) [%] | NeuAz expression upon co-incubation with Ac4ManNAz ([2]; Ac4ManNAz (Z) 50 μM plus analogue at 10, 25, 50 μM, 24 h, listed as MA-2) | reduction of NeuAz, simultaneous addition [2] [%] | suppression of NeuAz expression, delayed addition of 1c [3] [%] | reduction of NeuAz expression [2, 4] [%] |
| --- | --- | --- | --- | --- | --- | --- | --- | --- | --- |
| CC(=O)OC[C@H]1O[C@H](OC(C)=O)[C@@H](NC(=O)C2CC2)[C@@H](OC(C)=O)[C@@H]1OC(C)=O [Compound 1a, 1,3,4,6-tetra-O-acetyl-2-cyclopropanoylamino-2-deoxy-α-D-mannopyranose] | faint increase | negligible signals | 60 | 50 | 60 | reduced competitively in a dose-dependent manner | 10 | 30 | – |
| CC(=O)OC[C@H]1OC(OC(C)=O)[C@@H](NC(=O)C2CCC2)[C@@H](OC(C)=O)[C@@H]1OC(C)=O (stereo partly drawn) [Compound 1b, (3S,4R,5S,6R)-6-(acetoxymethyl)-3-(cyclobutanecarboxamido)tetrahydro-2H-pyran-2,4,5-triyl triacetate] | Robust increase | negligible signals | 65 | 50 | 50 | – | 10 | 50 | – |
| CC(=O)NC1C(OC(C)=O)OC(COC(C)=O)[C@@H](OC(C)=O)[C@@H]1OC(C)=O (stereo partly drawn) [Compound 1d, 1,3,4,6-tetra-O-acetyl-2-acetylamino-2-deoxy-α/β-D-mannopyranose] | negative for sLeX epitopes; also recorded: not detectable | negligible signals | 30 | – | – | – | – | – | 70 |

Reference: US20240002424A1, “HEXOSAMINE COMPOUNDS AND METHODS THEREOF” (National Institute of Immunology, priority 2021, published 2024)
